This is an account of results in article PMC6539479.

“Also recorded” adds a separate entry of the source. Like-named read-outs stand apart in the source and are kept apart here.

Assay [1] concerns human TASK-3 channels. Particulars: cited from earlier work.
Assay [2] has as its system human TASK-3 channels. In words: IonWorks Quattro electrophysiology assay, HEK293 (Coburn et al.). The settings on record: TASK-3, from reported IC50.
For the next assay, the system named is TASK-1. Details: method as in PMID 30803485. Particulars: cited from earlier work.
Setting [3] is: Table S2, TASK-3, ref 16 (supplement ref 1).
The mark [4] stands for this setting: Table 1, Figure 4B and text, TASK-3.
[5] abbreviates: Table S3 reported activity, TASK-3.

`CCOC(=O)C1CCN(c2ncnc3c2CN(Cc2ccccc2)CC3)CC1` [Compound 9c]: the IC50 in the assay on human TASK-3 channels [1] (setting [3]) is 710 ± 80 nM.
Regarding `CCOC(=O)C1CCN(c2ncnc3c2CN(C(=O)NCc2ccccc2)CC3)CC1` [Compound 10b], the IC50 in the assay on human TASK-3 channels [1] (setting [3]) was 3400 ± 400 nM.
For `CCOC(=O)C1CCN(c2ncnc3c2CN(C(=O)Nc2ccc(-c4ccccc4)cc2)CC3)CC1` [Compound 10c], in the assay on human TASK-3 channels [1] (setting [3]), the IC50 is 9600 ± 500 nM.
For the molecule `CCOC(=O)C1CCN(c2ncnc3c2CN(S(=O)(=O)Cc2ccccc2)CC3)CC1` [Compound 11a], the IC50 with human TASK-3 channels [1] (setting [3]) was 3600 ± 400 nM.
Take `CCOC(=O)C1CCN(c2ncnc3c2CN(S(=O)(=O)c2ccc(Cl)cc2)CC3)CC1` [Compound 11b]: the IC50 with human TASK-3 channels [1] (setting [3]) was 3900 ± 500 nM.
On to `CCOC(=O)C1CCN(c2ncnc3c2CN(S(=O)(=O)c2cccc(Cl)c2)CC3)CC1` [Compound 11c], for which the IC50 with human TASK-3 channels [1] (setting [3]) was 700 ± 70 nM.
For `CCOC(=O)C1CCN(c2ncnc3c2CN(S(=O)(=O)c2ccccc2Cl)CC3)CC1` [Compound 11d], the IC50 with human TASK-3 channels [1] (setting [3]) is 900 ± 100 nM.
Take `CCOC(=O)C1CCN(c2ncnc3c2CN(C(=O)c2ccccc2)CC3)CC1` [Compound 12a]: in the assay with human TASK-3 channels [1] (setting [3]), the IC50 is 3600 ± 770 nM.
Turning to `CCOC(=O)C1CCN(c2ncnc3c2CN(C(=O)c2ccc(OC)cc2)CC3)CC1` [Compound 12b], in the assay with human TASK-3 channels [1] (setting [3]), the IC50 is 1600 ± 180 nM.
As for `CCOC(=O)C1CCN(c2ncnc3c2CN(C(=O)c2ccc(Br)cc2)CC3)CC1` [Compound 12c], the IC50 in the assay with human TASK-3 channels [1] (setting [3]) is 430 ± 60 nM.
Turning to `CCOC(=O)C1CCN(c2ncnc3c2CN(C(=O)c2ccc(C)cc2)CC3)CC1` [Compound 12d], the IC50 with human TASK-3 channels [1] (setting [3]) is 310 ± 80 nM.
With `CCOC(=O)C1CCN(c2ncnc3c2CN(C(=O)c2ccc(C4CCCCC4)cc2)CC3)CC1` [Compound 12e], the IC50 with human TASK-3 channels [1] (setting [3]) was 120 ± 10 nM.
Regarding `CCOC(=O)C1CCN(c2ncnc3c2CN(C(=O)c2ccc(-c4ccccc4)cc2)CC3)CC1` [Compound 12f], the IC50 in the assay with human TASK-3 channels [1] (setting [3]) was 74 ± 9 nM.
Turning to `CCOC(=O)C1CCN(c2ncnc3c2CN(C(=O)c2ccc(-c4ccccc4)cc2)CC3(C)C)CC1` [Compound 13a], the IC50 with human TASK-3 channels [1] (setting [3]) is 570 ± 30 nM.
With `CCOC(=O)C1CCN(c2ncnc3c2CN(C(=O)c2ccc(-c4ccccc4)cc2)C(C)(C)C3)CC1` [Compound 13b], the IC50 in the assay with human TASK-3 channels [1] (setting [3]) was 650 ± 30 nM.
As for `CCOC(=O)C1CCN(c2nc(C)nc3c2CN(C(=O)c2ccc(-c4ccccc4)cc2)CC3)CC1` [Compound 14b], in the assay with human TASK-3 channels [1] (setting [3]), the IC50 is 260 ± 50 nM.
In the case of `O=C(c1ccc(-c2ccccc2)cc1)N1CCc2ncnc(N3CCCC3)c2C1` [Compound 17b], in the assay on human TASK-3 channels [1] (setting [4]), the IC50 was 27000 nM. In addition, the “inhibiting TASK-3 channels” value in the assay with human TASK-3 channels [1] (potency range in words) is listed as “micromolar range”. The “fold lower affinity than PK-THPP” value in the assay with human TASK-3 channels [2] is on record as about 1000 fold.
Turning to `O=C(c1ccc(-c2ccccc2)cc1)N1CCc2ncnc(N3CCCCC3)c2C1` [Compound 17c], the IC50 in the assay with human TASK-3 channels [1] (setting [3]) is 4000 ± 1100 nM.
For `O=C(c1ccc(-c2ccccc2)cc1)N1CCc2ncnc(N3CCOCC3)c2C1` [Compound 17d], in the assay with human TASK-3 channels [1] (setting [3]), the IC50 is 4600 ± 1100 nM.
Take `O=C(c1ccc(-c2ccccc2)cc1)N1CCc2ncnc(N3CCS(=O)(=O)CC3)c2C1` [Compound 17e]: the IC50 with human TASK-3 channels [1] (setting [3]) is 570 ± 60 nM; in the assay with human TASK-3 channels [1] (setting [5]), 570 nM.
Take `CS(=O)(=O)C1CCN(c2ncnc3c2CN(C(=O)c2ccc(-c4ccccc4)cc2)CC3)CC1` [Compound 18]: the figures for the IC50 in the assay on human TASK-3 channels [1] (setting [3]) and in the assay on human TASK-3 channels [1] (setting [5]) were 82 ± 5 nM and 82 nM, respectively.
On to `COC1CCN(c2ncnc3c2CN(C(=O)c2ccc(-c4ccccc4)cc2)CC3)CC1` [Compound 19], for which the IC50 with human TASK-3 channels [1] (setting [3]) is 135 ± 37 nM; with human TASK-3 channels [1] (setting [5]), 135 nM.
Take `O=C(c1ccc(-c2ccccc2)cc1)N1CCc2ncnc(N3CC[C@H]4OCCC[C@@H]4C3)c2C1` [Compound 20b]: the IC50 with human TASK-3 channels [1] (TASK-3) is 70 nM; in the assay with human TASK-3 channels [1] (setting [4]) it was 70 nM; with human TASK-3 channels [1] (setting [3]), 70 ± 7 nM; with human TASK-3 channels [1] (setting [5]), 70 nM.
Take `CC(C)(O)C1CCN(c2ncnc3c2CN(C(=O)c2ccc(-c4ccccc4)cc2)CC3)CC1` [Compound 21]: the IC50 is 50 nM with human TASK-3 channels [1] (TASK-3), 50 nM in the assay on human TASK-3 channels [1] (setting [4]), 50 ± 6 nM with human TASK-3 channels [1] (setting [3]) and 50 nM with human TASK-3 channels [1] (setting [5]).
As for `CCc1noc(C2CCN(c3ncnc4c3CN(C(=O)c3ccc(-c5ccccc5)cc3)CC4)CC2)n1` [Compound 22], the IC50 in the assay with human TASK-3 channels [1] (TASK-3) is 70 nM; in the assay on human TASK-3 channels [1] (setting [4]), 70 nM; in the assay with human TASK-3 channels [1] (setting [3]) it was 70 ± 10 nM; in the assay on human TASK-3 channels [1] (setting [5]), 70 nM.
As to `CCC(=O)C1CCN(c2ncnc3c2CN(C(=O)c2ccc(-c4ccccc4)cc2)CC3)CC1` [Compound 24], the IC50 in the assay on human TASK-3 channels [1] (setting [3]) was 80 ± 9 nM; with human TASK-3 channels [1] (setting [5]), 80 nM.
As for `CCCC(=O)C1CCN(c2ncnc3c2CN(C(=O)c2ccc(-c4ccccc4)cc2)CC3)CC1` [PK-THPP], the “potency on TASK-1 relative to TASK-3” value with TASK-1 is on record as “almost nine-times less potency; also recorded: almost nine-fold less potency”.
